Columns and labels:
Test in all cases: Kinase profiling
Assay type in all cases: biochemical
[1] = target: CK1 gamma 2 (Homo sapiens, UniProt P78368)
[2] = target: T1, GCK (Homo sapiens, UniProt Q12851)
T1 sequence (Q12851 1-820): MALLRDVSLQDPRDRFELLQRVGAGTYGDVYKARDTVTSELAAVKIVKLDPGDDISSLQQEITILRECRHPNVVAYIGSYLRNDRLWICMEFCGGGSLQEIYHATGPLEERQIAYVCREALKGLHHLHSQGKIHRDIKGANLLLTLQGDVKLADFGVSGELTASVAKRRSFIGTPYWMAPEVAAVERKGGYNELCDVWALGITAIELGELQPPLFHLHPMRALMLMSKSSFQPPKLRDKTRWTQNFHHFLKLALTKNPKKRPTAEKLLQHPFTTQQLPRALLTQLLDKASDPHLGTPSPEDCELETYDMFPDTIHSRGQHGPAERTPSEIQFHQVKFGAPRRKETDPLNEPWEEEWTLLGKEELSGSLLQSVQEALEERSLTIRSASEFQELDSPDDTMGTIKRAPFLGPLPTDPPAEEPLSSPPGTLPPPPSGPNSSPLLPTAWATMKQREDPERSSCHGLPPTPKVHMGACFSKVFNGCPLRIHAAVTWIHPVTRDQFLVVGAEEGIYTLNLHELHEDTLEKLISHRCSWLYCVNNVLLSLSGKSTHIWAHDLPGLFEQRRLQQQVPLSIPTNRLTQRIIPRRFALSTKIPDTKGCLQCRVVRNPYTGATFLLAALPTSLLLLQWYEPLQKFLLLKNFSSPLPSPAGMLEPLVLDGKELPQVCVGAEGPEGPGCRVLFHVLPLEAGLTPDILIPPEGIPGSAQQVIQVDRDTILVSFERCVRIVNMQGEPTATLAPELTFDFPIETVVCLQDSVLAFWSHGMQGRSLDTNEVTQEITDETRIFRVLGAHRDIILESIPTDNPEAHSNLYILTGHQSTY

[3] = target: T2, IKK epsilon (Homo sapiens, UniProt Q14164)
T2 sequence (Q14164 1-716): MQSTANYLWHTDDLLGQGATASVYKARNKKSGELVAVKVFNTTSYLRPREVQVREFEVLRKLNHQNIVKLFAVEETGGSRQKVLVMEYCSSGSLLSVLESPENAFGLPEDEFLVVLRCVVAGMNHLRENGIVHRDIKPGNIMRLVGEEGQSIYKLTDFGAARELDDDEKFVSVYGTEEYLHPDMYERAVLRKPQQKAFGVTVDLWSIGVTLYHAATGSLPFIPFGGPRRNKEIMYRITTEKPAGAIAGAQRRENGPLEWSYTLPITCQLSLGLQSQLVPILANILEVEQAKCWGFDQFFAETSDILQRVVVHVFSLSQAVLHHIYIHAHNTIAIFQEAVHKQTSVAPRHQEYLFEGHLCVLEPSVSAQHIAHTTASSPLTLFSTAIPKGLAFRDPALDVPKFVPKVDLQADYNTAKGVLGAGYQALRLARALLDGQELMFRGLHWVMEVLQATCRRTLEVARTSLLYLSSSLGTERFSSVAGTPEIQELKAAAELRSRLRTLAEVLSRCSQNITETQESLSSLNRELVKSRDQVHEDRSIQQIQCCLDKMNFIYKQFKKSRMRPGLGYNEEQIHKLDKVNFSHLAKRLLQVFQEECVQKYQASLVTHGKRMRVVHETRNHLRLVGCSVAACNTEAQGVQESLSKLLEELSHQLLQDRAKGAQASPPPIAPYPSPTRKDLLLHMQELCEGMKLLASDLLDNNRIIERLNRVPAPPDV

[4] = target: MINK1 (Homo sapiens, UniProt Q8N4C8)
Chain of MINK1 (Q8N4C8 whole entry): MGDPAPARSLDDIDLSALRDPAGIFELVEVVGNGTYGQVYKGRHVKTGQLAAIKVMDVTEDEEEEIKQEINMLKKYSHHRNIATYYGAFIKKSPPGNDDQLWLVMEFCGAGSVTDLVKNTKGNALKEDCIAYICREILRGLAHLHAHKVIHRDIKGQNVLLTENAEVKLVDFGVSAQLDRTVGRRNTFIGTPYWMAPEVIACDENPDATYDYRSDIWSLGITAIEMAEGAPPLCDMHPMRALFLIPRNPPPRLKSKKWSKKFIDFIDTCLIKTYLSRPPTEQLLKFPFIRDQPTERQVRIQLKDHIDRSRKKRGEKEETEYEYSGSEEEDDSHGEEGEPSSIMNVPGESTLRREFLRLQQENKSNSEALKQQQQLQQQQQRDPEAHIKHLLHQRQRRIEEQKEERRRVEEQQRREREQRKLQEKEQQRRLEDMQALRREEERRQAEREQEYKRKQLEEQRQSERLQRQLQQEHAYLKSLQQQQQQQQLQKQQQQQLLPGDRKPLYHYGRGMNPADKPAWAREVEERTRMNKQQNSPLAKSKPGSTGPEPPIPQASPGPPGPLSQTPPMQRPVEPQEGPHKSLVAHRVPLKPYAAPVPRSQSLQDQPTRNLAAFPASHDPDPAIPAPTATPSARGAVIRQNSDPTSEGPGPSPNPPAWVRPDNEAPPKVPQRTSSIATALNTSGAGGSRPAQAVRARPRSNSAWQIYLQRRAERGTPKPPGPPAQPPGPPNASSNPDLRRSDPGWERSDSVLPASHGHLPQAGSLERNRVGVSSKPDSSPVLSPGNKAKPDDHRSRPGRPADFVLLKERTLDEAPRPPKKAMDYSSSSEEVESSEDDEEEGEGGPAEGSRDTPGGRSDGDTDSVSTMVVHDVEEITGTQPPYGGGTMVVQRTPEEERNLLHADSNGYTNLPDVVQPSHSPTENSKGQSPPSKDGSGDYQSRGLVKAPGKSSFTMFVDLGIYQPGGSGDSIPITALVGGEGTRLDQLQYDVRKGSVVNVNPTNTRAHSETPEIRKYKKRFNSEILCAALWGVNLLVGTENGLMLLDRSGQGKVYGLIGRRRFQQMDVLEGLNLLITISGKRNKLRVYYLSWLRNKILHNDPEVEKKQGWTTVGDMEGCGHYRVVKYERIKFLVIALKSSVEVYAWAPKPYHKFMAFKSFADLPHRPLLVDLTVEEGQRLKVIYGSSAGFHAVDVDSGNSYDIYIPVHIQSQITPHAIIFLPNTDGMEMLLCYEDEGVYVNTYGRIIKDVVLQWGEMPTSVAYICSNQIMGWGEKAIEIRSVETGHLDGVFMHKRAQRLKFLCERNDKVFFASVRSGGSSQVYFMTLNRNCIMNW

[5] = target: MLK1 (Homo sapiens, UniProt P80192)
Chain of MLK1 (P80192 whole entry): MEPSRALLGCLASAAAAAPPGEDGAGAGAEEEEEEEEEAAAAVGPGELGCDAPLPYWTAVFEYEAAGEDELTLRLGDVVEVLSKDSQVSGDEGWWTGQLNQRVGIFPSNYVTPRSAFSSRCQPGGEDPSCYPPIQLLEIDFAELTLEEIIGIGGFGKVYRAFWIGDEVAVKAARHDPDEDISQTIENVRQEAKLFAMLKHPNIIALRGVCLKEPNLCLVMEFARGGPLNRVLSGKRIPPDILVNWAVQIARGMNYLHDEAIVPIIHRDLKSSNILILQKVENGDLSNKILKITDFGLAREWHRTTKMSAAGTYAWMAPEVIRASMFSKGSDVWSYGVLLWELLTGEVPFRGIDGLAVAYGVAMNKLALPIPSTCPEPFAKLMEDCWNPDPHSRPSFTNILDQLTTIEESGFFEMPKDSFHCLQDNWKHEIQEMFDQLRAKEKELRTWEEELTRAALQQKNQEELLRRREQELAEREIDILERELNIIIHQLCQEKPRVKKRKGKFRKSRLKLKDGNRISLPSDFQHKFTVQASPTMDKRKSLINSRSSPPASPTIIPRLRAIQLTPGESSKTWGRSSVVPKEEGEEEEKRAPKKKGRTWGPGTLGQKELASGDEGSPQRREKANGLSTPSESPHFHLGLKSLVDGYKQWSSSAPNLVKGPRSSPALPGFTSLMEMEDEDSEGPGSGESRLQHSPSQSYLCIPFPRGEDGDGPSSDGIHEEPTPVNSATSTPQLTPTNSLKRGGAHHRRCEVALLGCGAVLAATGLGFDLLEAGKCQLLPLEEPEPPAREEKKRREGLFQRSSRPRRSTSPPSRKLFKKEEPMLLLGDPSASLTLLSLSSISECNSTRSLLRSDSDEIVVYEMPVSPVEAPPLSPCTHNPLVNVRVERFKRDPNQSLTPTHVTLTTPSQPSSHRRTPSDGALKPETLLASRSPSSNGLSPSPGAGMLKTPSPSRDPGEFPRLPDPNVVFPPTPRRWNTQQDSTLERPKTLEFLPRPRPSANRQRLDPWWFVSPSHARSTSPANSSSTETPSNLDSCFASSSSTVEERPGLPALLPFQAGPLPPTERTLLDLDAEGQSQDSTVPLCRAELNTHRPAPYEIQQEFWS

[6] = target: PIM2 (Homo sapiens, UniProt Q9P1W9)
Chain of PIM2 (Q9P1W9 whole entry): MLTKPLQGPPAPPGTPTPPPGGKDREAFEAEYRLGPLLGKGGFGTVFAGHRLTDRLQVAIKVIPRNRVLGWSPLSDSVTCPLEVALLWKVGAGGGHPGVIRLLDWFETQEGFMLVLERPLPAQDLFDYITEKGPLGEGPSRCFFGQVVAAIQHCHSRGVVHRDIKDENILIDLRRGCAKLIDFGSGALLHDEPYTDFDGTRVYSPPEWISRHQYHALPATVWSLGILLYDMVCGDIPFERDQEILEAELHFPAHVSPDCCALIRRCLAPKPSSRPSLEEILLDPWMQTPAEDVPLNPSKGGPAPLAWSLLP

[7] = target: PRK2 (Homo sapiens, UniProt Q16513)
Chain of PRK2 (Q16513 whole entry): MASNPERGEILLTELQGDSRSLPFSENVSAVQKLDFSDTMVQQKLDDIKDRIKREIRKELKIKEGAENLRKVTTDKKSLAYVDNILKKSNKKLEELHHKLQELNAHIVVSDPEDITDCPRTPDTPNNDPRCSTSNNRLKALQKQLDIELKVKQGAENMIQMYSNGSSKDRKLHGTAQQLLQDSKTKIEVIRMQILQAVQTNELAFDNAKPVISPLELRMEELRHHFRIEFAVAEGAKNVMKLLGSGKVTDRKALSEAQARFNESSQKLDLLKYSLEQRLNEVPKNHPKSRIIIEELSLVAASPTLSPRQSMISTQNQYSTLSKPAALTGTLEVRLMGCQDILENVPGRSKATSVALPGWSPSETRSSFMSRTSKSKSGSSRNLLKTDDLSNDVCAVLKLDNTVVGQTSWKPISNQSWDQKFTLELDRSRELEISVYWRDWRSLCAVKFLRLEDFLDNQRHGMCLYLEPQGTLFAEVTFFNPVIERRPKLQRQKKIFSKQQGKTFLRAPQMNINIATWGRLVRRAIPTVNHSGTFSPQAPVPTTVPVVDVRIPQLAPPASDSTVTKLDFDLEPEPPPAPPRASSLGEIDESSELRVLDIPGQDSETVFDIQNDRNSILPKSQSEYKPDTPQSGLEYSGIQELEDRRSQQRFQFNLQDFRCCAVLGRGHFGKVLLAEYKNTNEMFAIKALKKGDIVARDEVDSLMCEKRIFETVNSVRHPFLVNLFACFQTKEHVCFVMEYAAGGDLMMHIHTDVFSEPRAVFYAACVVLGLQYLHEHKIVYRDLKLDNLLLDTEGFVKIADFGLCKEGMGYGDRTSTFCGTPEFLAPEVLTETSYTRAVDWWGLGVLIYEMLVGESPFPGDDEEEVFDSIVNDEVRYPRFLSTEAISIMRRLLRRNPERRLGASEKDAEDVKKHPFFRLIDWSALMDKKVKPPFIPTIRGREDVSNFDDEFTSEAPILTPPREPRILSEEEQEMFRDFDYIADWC

[8] = target: T3, SGK1 (Homo sapiens, UniProt O00141)
T3 sequence (O00141 1-431): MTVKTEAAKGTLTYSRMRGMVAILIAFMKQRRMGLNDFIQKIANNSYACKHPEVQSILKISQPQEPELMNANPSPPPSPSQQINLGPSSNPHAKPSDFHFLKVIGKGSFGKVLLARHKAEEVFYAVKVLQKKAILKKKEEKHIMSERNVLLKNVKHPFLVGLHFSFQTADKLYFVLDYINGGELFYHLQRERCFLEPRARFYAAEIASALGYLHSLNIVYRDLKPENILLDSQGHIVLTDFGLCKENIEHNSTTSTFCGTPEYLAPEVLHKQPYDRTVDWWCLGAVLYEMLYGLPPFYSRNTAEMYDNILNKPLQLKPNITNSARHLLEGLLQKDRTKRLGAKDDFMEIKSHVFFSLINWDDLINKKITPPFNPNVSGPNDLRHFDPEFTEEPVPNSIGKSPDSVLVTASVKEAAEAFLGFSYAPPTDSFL

[9] = target: TTBK1 (Homo sapiens, UniProt Q5TCY1)
Chain of TTBK1 (Q5TCY1 whole entry): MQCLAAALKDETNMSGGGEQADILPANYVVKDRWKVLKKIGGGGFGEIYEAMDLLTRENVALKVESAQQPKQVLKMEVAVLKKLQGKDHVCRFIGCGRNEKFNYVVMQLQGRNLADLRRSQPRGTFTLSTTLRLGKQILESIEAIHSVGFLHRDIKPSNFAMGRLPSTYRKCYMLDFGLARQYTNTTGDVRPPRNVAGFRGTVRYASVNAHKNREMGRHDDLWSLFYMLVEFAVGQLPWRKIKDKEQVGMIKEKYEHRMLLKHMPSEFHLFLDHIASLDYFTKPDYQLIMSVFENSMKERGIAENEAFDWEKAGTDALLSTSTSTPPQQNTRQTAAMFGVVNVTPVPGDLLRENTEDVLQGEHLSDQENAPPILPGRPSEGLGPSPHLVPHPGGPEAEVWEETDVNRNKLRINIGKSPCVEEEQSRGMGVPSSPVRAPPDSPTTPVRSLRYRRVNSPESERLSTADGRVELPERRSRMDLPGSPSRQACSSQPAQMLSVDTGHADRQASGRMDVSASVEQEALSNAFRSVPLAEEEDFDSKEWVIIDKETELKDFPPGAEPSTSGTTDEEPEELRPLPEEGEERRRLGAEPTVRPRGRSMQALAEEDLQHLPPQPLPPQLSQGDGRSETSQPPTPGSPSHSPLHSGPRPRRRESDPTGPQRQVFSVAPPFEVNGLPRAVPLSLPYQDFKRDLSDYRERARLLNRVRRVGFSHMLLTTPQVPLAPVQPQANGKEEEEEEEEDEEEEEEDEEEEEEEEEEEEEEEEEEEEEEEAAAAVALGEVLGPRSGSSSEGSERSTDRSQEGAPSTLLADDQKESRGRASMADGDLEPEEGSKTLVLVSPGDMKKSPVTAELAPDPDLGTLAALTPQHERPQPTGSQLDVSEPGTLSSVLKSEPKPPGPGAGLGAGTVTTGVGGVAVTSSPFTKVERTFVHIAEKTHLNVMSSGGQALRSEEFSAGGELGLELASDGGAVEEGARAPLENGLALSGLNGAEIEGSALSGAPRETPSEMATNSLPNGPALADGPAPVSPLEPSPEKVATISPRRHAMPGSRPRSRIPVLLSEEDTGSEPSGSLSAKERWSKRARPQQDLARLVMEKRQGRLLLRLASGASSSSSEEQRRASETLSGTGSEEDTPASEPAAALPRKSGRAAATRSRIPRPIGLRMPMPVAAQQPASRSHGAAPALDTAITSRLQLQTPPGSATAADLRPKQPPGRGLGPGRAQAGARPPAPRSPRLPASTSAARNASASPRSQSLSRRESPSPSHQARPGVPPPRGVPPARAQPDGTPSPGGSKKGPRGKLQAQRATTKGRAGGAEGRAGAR

| SMILES | remaining activity at 0.1 µM [1] [%] | remaining activity at 1 µM [1] [%] | remaining activity at 0.1 µM [2] [%] | remaining activity at 1 µM [2] [%] | remaining activity at 0.1 µM [3] [%] | remaining activity at 1 µM [3] [%] | remaining activity at 0.1 µM [4] [%] | remaining activity at 1 µM [4] [%] | remaining activity at 0.1 µM [5] [%] | remaining activity at 1 µM [5] [%] | remaining activity at 0.1 µM [6] [%] | remaining activity at 1 µM [6] [%] | remaining activity at 0.1 µM [7] [%] | remaining activity at 1 µM [7] [%] | remaining activity at 0.1 µM [8] [%] | remaining activity at 1 µM [8] [%] | remaining activity at 0.1 µM [9] [%] | remaining activity at 1 µM [9] [%] |
| --- | --- | --- | --- | --- | --- | --- | --- | --- | --- | --- | --- | --- | --- | --- | --- | --- | --- | --- |
| COc1cc(Nc2c(C#N)cnc3cc(OCCCN4CCN(C)CC4)c(OC)cc23)c(Cl)cc1Cl [Bosutinib, bosutinib] | 117 ± 1 | 108 ± 4 | 9 ± 2 | 4 | 46 ± 7 | 6 | 5 ± 1 | 1 | 52 ± 9 | 18 ± 4 | 99 | 96 ± 8 | 86 ± 6 | 56 ± 3 | 98 ± 20 | 100 ± 2 | 95 ± 2 | 114 ± 3 |
| Cc1nc(Nc2ncc(C(=O)Nc3c(C)cccc3Cl)s2)cc(N2CCN(CCO)CC2)n1 [Dasatinib] | 115 | 113 ± 12 | 95 ± 7 | 56 ± 8 | 102 ± 5 | 123 ± 13 | 90 ± 4 | 51 ± 1 | 72 ± 1 | 41 ± 2 | 104 ± 3 | 105 ± 1 | 100 ± 2 | 101 | 87 ± 11 | 96 ± 7 | 112 ± 8 | 112 ± 1 |
